Entries after “also recorded” stand apart in the source; their conditions may differ.
Key:
C57BL/6J mice = assay: Elevated plus maze test; type: in vivo; details: low doses of clonazepam
Method: (§1) The test was performed as previously described (Han et al., 2012). The maze used in this study has two closed arms (5.1×30 cm) surrounded by 20-cm high non-transparent walls and two open arms (5.1×30 cm). During the 10 min of trial, times spent in closed, center, and open arms, and total distance traveled during the trial were measured by the video-tracking software (EthoVision XT 8.5, Noldus Technology).

BTBR mice = assay: Elevated plus maze test; type: in vivo; details: 0.05 mg/kg
Method: as §1

Scn1a+/− mice [1] = assay: Contextual fear-conditioning test; type: in vivo; details: single i.p. 0.0625 mg/kg 30 min before training, listed as CLZ
Excerpt: (§2) The contextual fear-conditioning chamber was a square arena (25×25 cm) with clear PLEXIGLAS™ walls and a metal grid floor connected to a circuit board that delivered shocks to the metal grid (COULBOURN INSTRUMENTS™). An analog camera was attached on top of the chamber. The camera and the circuit board were connected to a personal computer, and its software (FREEZE FRAME™ 2.0, ACTIMETRICS™) controlled the circuit and recorded the data. The chamber was cleaned with 70% ethanol and wiped with paper towels before each session. In the habituation session, a test mouse was placed in the chamber and allowed to explore for 2 min^66-69. Immediately after habituation, the test mouse received a single mild foot shock (2 s, 0.5 mA). After staying in the chamber one more min, the mouse was removed from the chamber. For the 30-min short-term memory test, the mouse was returned to the context 30 min after the end of the training session. […] The movement of mice was also recorded by a USB webcam (LIFECAM™ HD-6000, MICROSOFT™) and PC-based video capture software (WINAVI™ Video Capture, ZJ MEDIA DIGITAL TECHNOLOGY™) for 2 min. The recorded video file was further analyzed by off-line video tracking software (ETHOVISION™ XT 7.0, NOLDUS TECHNOLOGY™). The freezing scores were calculated by dividing the test session into 1 min bouts and averaging together all 2 min for each animal. […]

wild-type mice = assay: Contextual fear-conditioning test; type: in vivo; details: 0.0625 mg/kg, listed as CLZ
Excerpt: as §2

Scn1a+/− mice [2] = assay: Open field and elevated plus maze tests (sedation, anxiolysis); type: in vivo
Method: Open field test was performed as previously described^23. Briefly, each individual mouse was placed near the wall-side of 38×42 cm open-field arena, and the movement of the mouse was recorded by USB webcam (LIFECAM™ HD-6000, MICROSOFT™) and PC-based video capture software (WINAVI VIDEO CAPTURE™, ZJMEDIA DIGITAL TECHNOLOGY™) for 10 min. The recorded video file was further analyzed by off-line video tracking software (ETHOVISION™ XT 7.0, NOLDUS TECHNOLOGY™). Total distance traveled and time in center (15×15 cm imaginary square) were measured. The open field arena was cleaned with 70% ethanol and wiped with paper towels between each trial.
The elevated plus maze is a plus-shaped maze that is elevated 60 cm above the floor. It consists of two closed arms surrounded by 15-cm high transparent walls and two open arms (5×25 cm) with a small ledge along the side of two open arms to prevent falling from the maze during the test. Each mouse was placed in the center (5×5 cm) of the maze facing one of the closed arms. During the 10-min test period, the movement of the mouse was recorded by a USB webcam (LIFECAM™ HD-6000, MICROSOFT™) and PC-based video capture software (WINAVI VIDEO CAPTURE™, ZJ MEDIA DIGITAL TECHNOLOGY™). The recorded video file was further analyzed by off-line video tracking software (ETHOVISION™ XT 7.0). Times spent in closed arms, center, and open arms were measured. The maze was cleaned with 70% ethanol and wiped with paper towels between each trial.
Oral administration is specifically contemplated for the methods described herein, and is well known for both benzodiazepines and non-BDZ GABA-A enhancers as described herein.

GABA-A α4 or α6 subtypes = details: cited from earlier work

For `O=C1CN=C(c2ccccc2Cl)c2cc([N+](=O)[O-])ccc2N1` [Clonazepam], the “anxiety-like behavior: avoidance of the open arms” value (C57BL/6J mice) was “little effect”, the “time in open arms (indicator of abnormally low anxiety)” value (BTBR mice) was “changed toward the values for C57BL/6J mice” and the “sedation (total distance moved during elevated plus maze)” value (BTBR mice; BTBR and C57BL/6J mice (FIG. 43I)) was “did not cause sedation; also recorded: without sedation”. The “short-term (30 min) and long-term (24 h) fear-associated contextual memory” value (Scn1a+/− mice [1]) was “complete reversal; also recorded: complete rescue”, the fear-associated contextual memory (wild-type mice) was “unaffected; also recorded: no significant change” and the “anxiolytic effect in elevated plus maze” value (Scn1a+/− mice [2]; 0.0625 mg/kg) was “did not elicit anxiolytic effects”. The “anxiolytic effect in open field test” value (Scn1a+/− mice [2]; 0.0625 mg/kg) was “not observed”, the “locomotor activity in open field test” value (Scn1a+/− mice [2]; 0.0625 mg/kg) was “not changed” and the sedation (Scn1a+/− mice [2]; both wild-type and Scn1a+/− mice, dose series) was “dose-dependent sedation”. The “maximal intraperitoneal dose that did not cause significant sedation or anxiolytic effect” value (Scn1a+/− mice [2]; open field and elevated plus maze, Scn1a+/− mice) was 0.0625 mg/kg.
In the case of `Cn1ncnc1COc1nn2c(-c3cc(F)ccc3F)nnc2cc1C(C)(C)C` [L-838,417], the “affinity for the α4 or α6 subtypes” value (GABA-A α4 or α6 subtypes) is given as “little affinity”.

Reference: patent US20150313913A1, “POSITIVE ALLOSTERIC MODULATORS OF THE GABA-A RECEPTOR IN THE TREATMENT OF AUTISM” (UNIVERSITY OF WASHINGTON THROUGH ITS CENTER FOR …, priority 2013, published 2015)
